Where a name gives a salt, the structure may show the parent alone.
What was measured:
Format in all cases: physicochemical
[1] = Chemical stability of mesylate and maleate salts by HPLC under various storage conditions
Procedure: The chemical stability of the conjugates was determined by HPLC analyses and was measured by the relative peak areas of the substance and of at least one of its degradation products. Thus, as is further exemplified in the Examples section that follows, the chemical stability of the exemplary conjugates described above was measured during time periods that typically ranged from 1 day to 24 days, whereby the conjugates were kept in sealed or open containers, with or without nitrogen atmosphere, and at a temperature range of from −20° C. to 40° C.
HPLC analyses were performed on a Water 2695 Separations Module, using a Luna C18 (2) 50 mm×4.6 mm×3 um column, a 5 μl injection volume and a 2487 dual wavelength detector under the following instrumental conditions: Mobile phase A: 0.1% formic acid; Mobile phase B: acetonitrile; Flow rate: 0.5 ml per minute; Mobile phase gradient: 0.0 minutes 90% A, 10% B, 14.0 minutes 20% A, 80% B, 15.0 minutes 90% A, 10% B and 20.0 minutes 90% A, 10% B; Run time: 20 minutes; Detection: UV at 254 nm; Column temperature: 40° C.
(§1) Stability and hygroscopicity studies of the mesylate and maleate salts of the conjugate were carried out under various conditions. The hygroscopicity of the salts was determined by following the water content of the salt using the Karl Fischer (KF) titration analysis method. The chemical stability of the salts was determined by following the appearance of the degradation product perphenazine using HPLC analyses. The samples were kept at −20° C. under nitrogen, at room temperature in an open container, at room temperature in a sealed container and at 40° C. in a sealed container. The samples were tested at the end of the preparation procedure (t=0), 72 hours after the preparation time (t=72), 1 week after the preparation time (t=168) and two weeks after the preparation time (t=336).

[2] = Hygroscopicity of mesylate and maleate salts by Karl Fischer titration
Procedure: Water absorption and content measurements were carried out using a Karl Fischer (KF) titrator. Karl Fischer titration is a classic method in analytical chemistry that uses calometric titration to determine the moisture content of a sample, which is specific to water. The titration reaction taking place in the presence of a base and 50:50 methanol:dichloromethane as a titration solvent.
The accurately weighted samples (near 100 mg) of the tested compound were placed in the titrator to determine the amount of sample required for measuring 10-250 μg of water, and the water content was calculated accordingly.
as §1

[3] = Solubility in 1% weight/volume lactic acid solution; conditions: agitated 1 hour at room temperature
Procedure: 1.0 gram of each of the mesylate and maleate addition salts prepared as described herein was agitated in 10 ml of 1% weight/volume lactic acid solution for 1 hour at room temperature. Any solids remaining thereafter were filtered off and the filtrate was dried under vacuum until no further change in weight was detected. […] The calculated solubility obtained for the mesylate salt was more than 100 mg/ml.

[4] = Chemical stability of mesylate and maleate salts by HPLC under various storage conditions; conditions: for texture and color after storage: room temperature, open to the atmosphere
[5] = Open container kept at room temperature, t = 0 hours
[6] = Open container kept at room temperature, t = 72 hours
[7] = Open container kept at room temperature, t = 168 hours
[8] = Open container kept at room temperature, t = 336 hours
[9] = Sealed container kept at 40° C., t = 0 hours
[10] = Sealed container kept at 40° C., t = 72 hours
[11] = Sealed container kept at 40° C., t = 168 hours
[12] = Sealed container kept at 40° C., t = 336 hours
[13] = Sealed container kept at room temperature, t = 0 hours
[14] = Sealed container kept at room temperature, t = 72 hours
[15] = Sealed container kept at room temperature, t = 168 hours
[16] = Sealed container kept at room temperature, t = 336 hours
[17] = Sealed container kept at −20° C. under N2, t = 0 hours
[18] = Sealed container kept at −20° C. under N2, t = 72 hours
[19] = Sealed container kept at −20° C. under N2, t = 168 hours
[20] = Sealed container kept at −20° C. under N2, t = 336 hours
[21] = open container at room temperature, five weeks (about 840 hours)

NCCCC(=O)OCCN1CCN(CCCN2c3ccccc3Sc3ccc(Cl)cc32)CC1 [maleate addition salt]
Salt peak area [1, 5]: 96.54%
Unidentified impurity peak area [1, 5]: 1.05%
perphenazine peak area [1, 5]: 1.44%
Salt peak area [1, 6]: 96.43%
Unidentified impurity peak area [1, 6]: 0.98%
perphenazine peak area [1, 6]: 1.44%
Salt peak area [1, 7]: 96.82%
Unidentified impurity peak area [1, 7]: 0.94%
perphenazine peak area [1, 7]: 1.46%
Salt peak area [1, 8]: 96.00%
Unidentified impurity peak area [1, 8]: 0.93%
perphenazine peak area [1, 8]: 1.43%
Salt peak area [1, 9]: 96.54%
Unidentified impurity peak area [1, 9]: 1.05%
perphenazine peak area [1, 9]: 1.44%
Salt peak area [1, 10]: 94.96%
Unidentified impurity peak area [1, 10]: 2.16%
perphenazine peak area [1, 10]: 1.52%
Salt peak area [1, 11]: 94.32%
Unidentified impurity peak area [1, 11]: 2.46%
perphenazine peak area [1, 11]: 1.65%
Salt peak area [1, 12]: 92.93%
Unidentified impurity peak area [1, 12]: 2.79%
perphenazine peak area [1, 12]: 1.80%
Salt peak area [1, 13]: 96.54%
Unidentified impurity peak area [1, 13]: 1.05%
perphenazine peak area [1, 13]: 1.44%
Salt peak area [1, 14]: 96.24%
Unidentified impurity peak area [1, 14]: 1.09%
perphenazine peak area [1, 14]: 1.43%
Salt peak area [1, 15]: 96.86%
Unidentified impurity peak area [1, 15]: 1.11%
perphenazine peak area [1, 15]: 1.40%
Salt peak area [1, 16]: 95.69%
Unidentified impurity peak area [1, 16]: 1.24%
perphenazine peak area [1, 16]: 1.47%
Salt peak area [1, 17]: 96.54%
Unidentified impurity peak area [1, 17]: 1.05%
perphenazine peak area [1, 17]: 1.44%
Salt peak area [1, 18]: 96.79%
Unidentified impurity peak area [1, 18]: 0.99%
perphenazine peak area [1, 18]: 1.38%
Salt peak area [1, 19]: 96.85%
Unidentified impurity peak area [1, 19]: 0.98%
perphenazine peak area [1, 19]: 1.39%
Salt peak area [1, 20]: 96.69%
Unidentified impurity peak area [1, 20]: 1.03%
perphenazine peak area [1, 20]: 1.39%
stability in words ([1]; all storage conditions of Table 8): stable in all sample forms
stability and hygroscopicity in words ([1]; as compared to the HCl and mesylate salt): more stable and less hygroscopic
perphenazine (HPLC) [1, 21]: 1.46%
Water content % [2, 5]: 0.3%
Water content % [2, 6]: 0.7%
Water content % [2, 7]: 0.8%
Water content % [2, 8]: 0.8%
Water content % [2, 9]: 0.3%
Water content % [2, 10]: 0.5%
Water content % [2, 11]: 0.7%
Water content % [2, 12]: 0.7%
Water content % [2, 13]: 0.3%
Water content % [2, 14]: 0.5%
Water content % [2, 15]: 0.8%
Water content % [2, 16]: 0.5%
Water content % [2, 17]: 0.3%
Water content % [2, 18]: 0.3%
Water content % [2, 19]: 0.3%
Water content % [2, 20]: 0.5%
water content [2, 21]: 0.91%
calculated solubility ([3]; listed as maleate salt): 48 mg/mL
purity (HPLC) [4, 21]: 94.98%
texture and color after storage ([4]; listed as maleate salt): slightly discolored, changing from yellow to light orange but stayed as a free flowing solid

NCCCC(=O)OCCN1CCN(CCCN2c3ccccc3Sc3ccc(Cl)cc32)CC1 [mesylate addition salt]
Salt peak area [1, 5]: 97.91%
perphenazine peak area [1, 5]: 1.39%
Salt peak area [1, 6]: 90.30%
perphenazine peak area [1, 6]: 8.53%
Salt peak area [1, 7]: 81.40%
perphenazine peak area [1, 7]: 17.68%
Salt peak area [1, 8]: 61.97%
Unidentified impurity peak area [1, 8]: 0.05%
perphenazine peak area [1, 8]: 35.74%
Salt peak area [1, 9]: 97.91%
perphenazine peak area [1, 9]: 1.39%
Salt peak area [1, 10]: 91.83%
perphenazine peak area [1, 10]: 7.33%
Salt peak area [1, 11]: 91.91%
perphenazine peak area [1, 11]: 7.56%
Salt peak area [1, 12]: 87.17%
perphenazine peak area [1, 12]: 11.63%
Salt peak area [1, 13]: 97.91%
perphenazine peak area [1, 13]: 1.39%
Salt peak area [1, 14]: 95.84%
perphenazine peak area [1, 14]: 3.17%
Salt peak area [1, 15]: 94.98%
perphenazine peak area [1, 15]: 4.52%
Salt peak area [1, 16]: 91.67%
perphenazine peak area [1, 16]: 6.88%
Salt peak area [1, 17]: 97.91%
perphenazine peak area [1, 17]: 1.39%
Salt peak area [1, 18]: 98.08%
perphenazine peak area [1, 18]: 1.34%
Salt peak area [1, 19]: 98.22%
perphenazine peak area [1, 19]: 1.26%
Salt peak area [1, 20]: 98.24%
perphenazine peak area [1, 20]: 1.21%
stability in words ([1]; sealed container at −20° C. under nitrogen atmosphere): mostly stable
Water content % [2, 5]: 0.6%
Water content % [2, 6]: 1.2%
Water content % [2, 7]: 4.0%
Water content % [2, 8]: 4.8%
Water content % [2, 9]: 0.6%
Water content % [2, 10]: 0.8%
Water content % [2, 11]: 1.2%
Water content % [2, 12]: 0.9%
Water content % [2, 13]: 0.6%
Water content % [2, 14]: 0.8%
Water content % [2, 15]: 1.3%
Water content % [2, 16]: 1.5%
Water content % [2, 17]: 0.6%
Water content % [2, 18]: 0.6%
Water content % [2, 19]: 0.7%
Water content % [2, 20]: 0.6%
calculated solubility ([3]; listed as mesylate salt): more than 100 mg/ml
texture and color after storage ([4]; listed as mesylate salt): become sticky in texture and changed color from pink to black

From patent US20090298814A1, “Novel salts of conjugated psychotropic drugs and processes of preparing same” (RAMOT AT TEL AVIV UNIVERISTY LTD, priority 2005, published 2009)
